# Results from US20070021351A1, “Liver/plasma concentration ratio for dosing hepatitis C virus protease inhibitor” (Schering Corporation, priority 2005, published 2007).
# Tests used:
# HCV = assay: Suppression of virus in serum after about two weeks of administration; format: in vivo; details: threshold of detectability
# [1] = Example 2: food-effect crossover study, 600 mg single dose, healthy adult subjects; format: in vivo, human
# Method: This was a randomized, open-label, single-dose, two-treatment (fed or fasted), two-period, two-sequence crossover study of the effect of food on the bioavailability of compound of Formula Ia in 23 healthy adult male and female subjects. The primary pharmacokinetic parameters were AUC(I) and Cmax for compound of Formula Ia. The study included a 7-day wash-out period between treatment periods.
# Subjects were confined at the study site at least 14 hours prior to each treatment (Day-1). On the morning of Day 1, following a 10-hour overnight fast, subjects were randomized to receive in a particular order Treatment A and Treatment B: • Treatment A: compound of Formula Ia 600 mg (6×100 mg capsules) PO following an overnight fast. • Treatment B: compound of Formula Ia 600 mg (6×100 mg capsules) PO within 20 minutes following the completion of a standard high-fat breakfast. There was a 7-day wash-out period between receiving treatments.
# Subjects receiving Treatment A received a formulation of compound of Formula Ia comprised of compound of Formula Ia and a pharmaceutically acceptable carrier, such as microcrystalline cellulose, while continuing to fast, while subjects randomized to Treatment B consumed a standardized high-fat meal prior to compound administration (within 20 minutes prior to the compound administration). The capsules along with approximately 240 mL of water were swallowed whole, not chewed or crushed. […] Water was permitted as desired except for 1 hour before and after compound administration. A washout period of at least 7 days separated the two treatment periods. Upon return to the clinic, subjects underwent the same procedures as the first period and continued the randomization sequence (subjects who received compound of Formula Ia fasted in Period 1 and then received compound of Formula Ia under fed conditions in Period 2, and vice versa).
# Blood samples (7 mL each) for the determination of compound of Formula Ia levels were drawn immediately prior to dosing (0 hour), and at 0.5, 1, 1.5, 2, 2.5, 3, 4, 5, 6, 8, 12, 24, 36, and 48 hours after dosing. The blood samples were collected into tubes containing EDTA. The samples were centrifuged at 1500 g for 10 minutes to obtain plasma and the plasma samples were frozen at −20° C. and maintained in the frozen state until assayed.
# Plasma concentrations of compound of Formula Ia were determined using a validated liquid chromatography tandem mass spectrometry (LC-MS/MS) method. The assay lower limit of quantitation (LLOQ) was 0.50 ng/mL and the method was validated over the concentration range of 0.50 to 1000 ng/mL.
# The mean and percent coefficient of variation (% CV) were calculated for plasma concentrations of compound of Formula Ia at each time point. Concentration values less than the assay LLOQ were reported as, and set to zero in the tables and calculations. The plasma concentration-time data for compound of Formula Ia were subjected to pharmacokinetic analysis by noncompartmental methods using WinNonlin software. Nominal sampling times were used for pharmacokinetic analysis, since none of the pharmacokinetic sampling time deviations were >10% of the nominal times. For each subject, the following pharmacokinetic parameters were determined for compound of Formula Ia: maximum plasma concentration (Cmax), time of maximum observed plasma concentration (Tmax), the final quantifiable sampling time (tf), area under the plasma concentration-time curve from time 0 to tf (AUC[tf]), AUC(I) (AUC[tf]+C[tf]estimated/K) and Vd/F. The K and C(tf)estimated are defined as terminal elimination rate constant and estimated concentration at final quantifiable sample, respectively. Terminal phase half-life (t½=In2/K) and apparent clearance (CL/F=Dose/AUC[I]) were also determined. Cmax, Tmax and tf were the observed values. […]
# [2] = test system: HCV-RNA viral load (genotype 1); assay: Example 3: pharmacodynamics, effect on HCV-RNA viral load; format: in vivo; details: 400 mg TID
# Method: Multiple escalating doses of compound of Formula Ia were administered for 14 days to HCV positive subjects who were genotype 1 Interferon-a (with or without ribavirin) non responders. In a randomized, placebo controlled, third party blind study, multiple doses of 100 mg BID, 200 mg BID, 400 mg BID, 400 mg TID, and 600 mg TID of compound of Formula Ia or placebo in a 3:1 ratio with or without food were evaluated. […]
# Serial HCV-RNA data were evaluated for antiviral activity and for the change from baseline in the serum HCV RNA levels.
smiles,measurement,setting,value
"CC(C)(C)NC(=O)N[C@H](C(=O)N1C[C@H]2[C@@H]([C@H]1C(=O)NC(CC1CCC1)C(=O)C(N)=O)C2(C)C)C(C)(C)C (mixture of isomers) [Formula Ia, (1R,5S)-N-[3-Amino-1-(Cyclobutylmethyl)-2,3-Dioxopropyl]-3-[2(S)-[[[(1,1-Dimethylethyl)Amino]Carbonyl]Amino]-3,3-Dimethyl-1-Oxobutyl]-6,6-Dimethyl-3-Azabicyclo[3.1.0]Hexan-2(S)-Carboxamide]",virus level in serum,HCV,< 100 copies/ml
same,"apparent mean Vd/F, fed versus fasted (times lower)",[1]; 600 mg oral,about five
same,safety profile,"[1]; 600 mg oral dose, fed and fasted states",low frequency of treatment emergent and treatment related AEs
same,"delay of median Tmax, fed versus fasted",[1]; 600 mg single oral dose,approximately three
same,"median concentration at 8 hours, fed relative to fasted",[1]; 600 mg single oral dose,more than 4 fold
same,"median concentration at 12 hours, fed relative to fasted",[1]; 600 mg single oral dose,2 fold
same,AUC(I),"[1]; 600 mg single oral dose, fed, mean, n=19",3697 ng·h/mL
same,"AUC(l) ratio estimate, fed to fasted","[1]; 600 mg, female, n=10",225%
same,"AUC(tf) ratio estimate, fed to fasted","[1]; 600 mg, female, n=10",229%
same,"Cmax ratio estimate, fed to fasted","[1]; 600 mg, female, n=10",170%
same,increase of relative (oral) bioavailability (AUC) in the fed state,"[1]; 600 mg, high-fat meal relative to fasted",over 100%
same,"AUC(l) ratio estimate, fed to fasted","[1]; 600 mg, male, n=10",202%
same,"AUC(tf) ratio estimate, fed to fasted","[1]; 600 mg, male, n=10",205%
same,"Cmax ratio estimate, fed to fasted","[1]; 600 mg, male, n=10",155%
same,"AUC(l) ratio estimate, fed to fasted","[1]; 600 mg, n=20",214%
same,"AUC(tf) ratio estimate, fed to fasted","[1]; 600 mg, n=20",217%
same,"Cmax ratio estimate, fed to fasted","[1]; 600 mg, n=20",162%
same,absorption lag time in the fed state vs the fasted state,[1]; in 12 of the 20 subjects who completed both periods,> 0.5 h
same,dose dependence of antiviral activity,"[2]; 100 mg BID, 200 mg BID, 400 mg BID, all subjects",antiviral activity increased in a dose-related manner
same,"viral load reduction from baseline, average minimum reduction","[2]; 14 days, genotype 1 interferon non responders",2 logs
